Assay results taken from patent US20030236229A1 (priority 1996, published 2003).
Structures can show the parent of a compound that is named as a salt.

molecular target: T1, Golgi α-mannosidase II (Canavalia ensiformis, UniProt C0HJB3); assay: not given; type: biochemical; conditions: sodium acetate pH 5.6, 60 min at 37° C., p-nitrophenol read at 405
T1 sequence (C0HJB3 1-981): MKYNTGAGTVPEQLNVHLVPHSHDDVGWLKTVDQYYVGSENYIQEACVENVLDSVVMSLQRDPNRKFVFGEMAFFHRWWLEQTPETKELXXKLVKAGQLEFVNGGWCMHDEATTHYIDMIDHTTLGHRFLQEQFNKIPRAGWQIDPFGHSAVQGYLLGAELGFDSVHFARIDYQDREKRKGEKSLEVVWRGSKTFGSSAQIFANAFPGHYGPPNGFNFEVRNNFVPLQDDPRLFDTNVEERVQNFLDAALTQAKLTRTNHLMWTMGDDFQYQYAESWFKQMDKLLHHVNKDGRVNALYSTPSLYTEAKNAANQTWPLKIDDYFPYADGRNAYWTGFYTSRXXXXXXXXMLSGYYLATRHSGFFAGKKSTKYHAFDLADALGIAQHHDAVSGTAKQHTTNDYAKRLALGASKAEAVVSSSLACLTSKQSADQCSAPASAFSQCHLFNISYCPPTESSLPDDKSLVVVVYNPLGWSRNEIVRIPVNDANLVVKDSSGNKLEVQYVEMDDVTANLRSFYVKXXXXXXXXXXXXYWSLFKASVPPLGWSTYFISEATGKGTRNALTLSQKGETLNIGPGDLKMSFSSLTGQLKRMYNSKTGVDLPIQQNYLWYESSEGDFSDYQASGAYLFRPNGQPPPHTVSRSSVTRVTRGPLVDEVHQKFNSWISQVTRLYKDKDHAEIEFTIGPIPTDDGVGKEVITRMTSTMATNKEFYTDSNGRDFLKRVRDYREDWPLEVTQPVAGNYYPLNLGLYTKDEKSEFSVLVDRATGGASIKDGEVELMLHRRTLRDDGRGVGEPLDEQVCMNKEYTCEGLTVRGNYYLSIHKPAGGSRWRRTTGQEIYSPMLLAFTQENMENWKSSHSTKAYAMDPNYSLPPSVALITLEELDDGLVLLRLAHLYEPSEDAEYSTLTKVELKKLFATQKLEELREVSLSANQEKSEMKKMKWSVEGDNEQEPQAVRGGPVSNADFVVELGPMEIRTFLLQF
Protocol: (§1) 15 μl of α-mannosidase (Sigma 38 U/ml) was added to each well and the plates were incubated for 60 min at 37° C. The reaction was stopped by the addition of 50 μl of 0.5M sodium carbonate and formation of p-nitrophenol was measured with a plate set at […]. […] The reaction was stopped by the addition of 50 μl of 0.5M sodium carbonate and formation of p nitrophenol was measured with a plate set at 405.

SMILES	MannoaidaseII Activity (μM)
OC1=C(O)N2CCC[C@@H](O)[C@H]2[C@@H]1O [(1S,8R,8aS)-1,5,6,7,8,8a-Hexahydro-1,2,3,8-indolizinetetraol]	No detectable

same assay, conditions: sodium acetate pH 5.6, 60 min at 37° C., p-nitrophenol read at 405; read-out: MannoaidaseII Activity

SMILES	IC50 [µM]
OCC1C(O)C(O)C2C(O)CCCN12 (stereo not shown) [EJH-4-263, 3-hydroxymethyl-swainsonine]	1.83 ± 1.3
O=C1[C@H](O)[C@@H](O)[C@@H]2[C@H](O)CCCN12 [GD 35, (1S,2R,8R,8aS)-1,2,8-Trihydroxyhexahydo-3(2II)-indolizinone]	1030

molecular target: T2, lysosomal mannosidase (Homo sapiens, UniProt O00754); assay: biochemical; conditions: Lysosomal Mannosidase Activity (μM)
T2 sequence (O00754 50-1011): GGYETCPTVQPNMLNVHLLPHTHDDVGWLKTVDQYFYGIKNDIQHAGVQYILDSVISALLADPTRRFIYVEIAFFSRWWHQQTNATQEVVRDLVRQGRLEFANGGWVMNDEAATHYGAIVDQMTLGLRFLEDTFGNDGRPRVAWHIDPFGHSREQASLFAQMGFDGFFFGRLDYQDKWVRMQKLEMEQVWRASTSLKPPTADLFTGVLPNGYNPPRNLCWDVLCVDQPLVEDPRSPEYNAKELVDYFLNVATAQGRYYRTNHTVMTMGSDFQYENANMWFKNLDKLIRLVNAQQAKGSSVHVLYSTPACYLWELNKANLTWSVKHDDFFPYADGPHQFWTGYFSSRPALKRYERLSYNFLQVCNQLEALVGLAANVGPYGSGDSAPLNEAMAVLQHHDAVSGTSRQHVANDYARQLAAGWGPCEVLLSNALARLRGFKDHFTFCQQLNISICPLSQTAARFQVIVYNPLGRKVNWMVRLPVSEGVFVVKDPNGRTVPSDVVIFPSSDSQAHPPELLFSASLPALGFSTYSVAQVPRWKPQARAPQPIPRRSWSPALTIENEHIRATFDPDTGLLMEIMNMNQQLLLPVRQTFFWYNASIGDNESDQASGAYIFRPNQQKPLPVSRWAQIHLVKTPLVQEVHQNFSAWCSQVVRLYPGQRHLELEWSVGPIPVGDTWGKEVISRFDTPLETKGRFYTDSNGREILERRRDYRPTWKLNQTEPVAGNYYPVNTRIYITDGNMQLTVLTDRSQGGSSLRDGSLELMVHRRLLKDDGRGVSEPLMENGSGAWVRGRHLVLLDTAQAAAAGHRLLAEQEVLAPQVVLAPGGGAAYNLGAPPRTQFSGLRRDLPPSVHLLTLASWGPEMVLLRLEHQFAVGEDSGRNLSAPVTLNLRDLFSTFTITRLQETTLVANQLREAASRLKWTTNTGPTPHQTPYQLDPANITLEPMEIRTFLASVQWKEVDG
Protocol: as §1

SMILES	IC50 [µM]
O[C@H]1[C@H]2[C@H](O)CCCN2C[C@H]1O [Swainsonine, reference compound]	0.08 ± 0.079

same assay, conditions: sodium acetate pH 5.0, 60 min at 37° C., p-nitrophenol read at 405

SMILES	Lysosomal Mannosidase Activity (μM)
OC1=C(O)N2CCC[C@@H](O)[C@H]2[C@@H]1O [(1S,8R,8aS)-1,5,6,7,8,8a-Hexahydro-1,2,3,8-indolizinetetraol]	No detectable inhibition

same assay, conditions: sodium acetate pH 5.0, 60 min at 37° C., p-nitrophenol read at 405; read-out: Lysosomal Mannosidase Activity

SMILES	IC50 [µM]
CC1CCC(O)C2C(O)C(O)CN12 (single isomer, unassigned) [GD37]	28.2 ± 7.85
OC1CN2C(COCc3ccccc3)CCC(O)C2C1O (single isomer, unassigned) [GD42]	0.164 ± 0.0491
CC1CCC(O)C2C(O)C(O)CN12 (single isomer, unassigned) [GD 20]	2.3 ± 1.13
CC1CCC(O)C2C(O)C(O)CN12 (single isomer, unassigned) [GD 28]	0.316 ± 0.0759
OC1CN2C(COCc3ccccc3)CCC(O)C2C1O (single isomer, unassigned) [GD 91]	3.23 ± 0.268
N#CC1C(O)[C@@H](O)C2[C@H](O)CCCN12 (stereo in doubt) [GD 92, (1S, 2S, 3R/S, 8R, 8aS)-3-cyano-1,2,8-Trihydroxyoctahydroindolizine]	30.1 ± 1.2
OCC1C(O)C(O)C2C(O)CCCN12 (stereo not shown) [EJH-4-263, 3-hydroxymethyl-swainsonine]	39.1 ± 16.3
OCC1C(O)C(O)C2C(O)CCCN12 (stereo not shown) [EJH-4-264, 3-hydroxymethyl-swainsonine]	1.7 ± 0.5
CC1CCC(O)C2C(O)C(O)CN12 [GD19, (5R)-5-Methylswainsonine formate salt]	1.45 ± 0.071
C[C@H]1[C@@H](CO)C[C@@H](O)[C@@H]2[C@H](O)[C@H](O)CN21 [GD40, (5S,6S)-6-Hydroxymethyl-5-methylswainsonine]	62.4 ± 17.9
C[C@@H]1[C@H](CO)C[C@@H](O)[C@@H]2[C@H](O)[C@H](O)CN21 [GD44, (5R,6R)-6-Hydroxymethyl-5-methylswainsonine]	24.5 ± 7.62
OC[C@H]1CC[C@@H](O)[C@@H]2[C@H](O)[C@H](O)CN12 [GD45, (5R)-5-(Hydroxymethyl)swainsonine]	0.705 ± 0.309
CCOC(=O)C1CC(O)C2C(O)C(O)CN2C1C [GD84, ethyl (5R,6R)-5-methylswainsonine-6-carboxylate]	1500 ± 707
O=C1[C@H](O)[C@@H](O)[C@@H]2[C@H](O)CCCN12 [GD 35, (1S,2R,8R,8aS)-1,2,8-Trihydroxyhexahydo-3(2II)-indolizinone]	1090
CCOC(=O)[C@H]1C[C@H](O)[C@@H]2[C@@H](O)[C@H](O)CN2[C@H]1C [GD 36, ethyl (1R,2R,5S,6S,8S,8aR)-1,2,8-trihydroxy-5-methyloctahydro-6-indolizinecarboxylate]	120 ± 32.2
CC[C@H]1CC[C@@H](O)[C@@H]2[C@H](O)[C@H](O)CN12 [GD 38, (5S)-5-Ethylswainsonine]	0.36 ± 0.313
OC[C@@H]1CC[C@@H](O)[C@@H]2[C@H](O)[C@H](O)CN12 [GD 46, (5S)-5-(Hydroxymethyl)swainsonine]	1.48 ± 0.455

test system: MDAY-D2 tumor cells; assay: not given; conditions: viable MDAY-D2 tumor cells; cited from earlier work

SMILES	activity as inhibitors of Golgi oligosaccharide processing
CCCC(=O)OC1CN2CCCC(O)C2C1O (stereo not shown) [2-butanoyloxy]	retained full activity
CCCCCCCC(=O)OC1CN2CCCC(O)C2C1O (stereo not shown) [2-octanoyloxy]	retained full activity
O=C(OC1CN2CCCC(O)C2C1O)c1ccc([N+](=O)[O-])cc1 (stereo not shown) [2-p-nitrobenzoyloxy]	retained full activity
